# From ChEMBL document CHEMBL1154649, “Anti-HBV agents. Part 3: preliminary structure-activity relationships of tetra-acylalisol A derivatives as potent hepatitis B virus inhibitors” (Bioorg Med Chem Lett, 2009)
# What was measured:
# Hepatitis B virus [1] = test: Antiviral activity against HBV assessed as inhibition of viral early antigen secretion; type: functional, organism-based
# [2] = Cytotoxicity against human HepG2(2.2.15) cells; type: cell-based
# Hepatitis B virus [3] = test: Antiviral activity against HBV assessed as inhibition of viral surface antigen secretion; type: functional, organism-based
# [4] = Selectivity index, ratio of CC50 for human HepG2(2.2.15) cells to IC50 for HBV surface antigen secretion; type: functional
# [5] = Drug level in Sprague-Dawley rat blood at 2 mg/kg, iv after 0.25 hrs; type: ADME, organism-based; parameters: dose 2 mg/kg, route intravenous; settings: read-out: Drug uptake
# [6] = Drug level in Sprague-Dawley rat blood at 10 mg/kg, ig after 8 hrs; type: ADME, organism-based; parameters: dose 10 mg/kg, route intragastric; settings: po, read-out: Drug uptake
# [7] = Drug level in Sprague-Dawley rat blood at 2 mg/kg, iv after 24 hrs; type: ADME, organism-based; parameters: dose 2 mg/kg, route intravenous; settings: read-out: Drug uptake
# [8] = Initial plasma concentration n Sprague-Dawley rat at 2 mg/kg, iv; type: ADME, organism-based; parameters: dose 2 mg/kg, route intravenous
# [9] = Volume of distribution at steady state in Sprague-Dawley rat at 2 mg/kg, iv; type: ADME, organism-based; parameters: dose 2 mg/kg, route intravenous; settings: in vivo, read-out: Vdss
# [10] = Drug level in Sprague-Dawley rat blood at 2 mg/kg, iv after 4 hrs; type: ADME, organism-based; parameters: dose 2 mg/kg, route intravenous; settings: read-out: Drug uptake
# [11] = Cmax in Sprague-Dawley rat at 10 mg/kg, ig; type: ADME, organism-based; parameters: dose 10 mg/kg, route intragastric; settings: in vivo, po
# Rattus norvegicus [12] = test: Oral bioavailability in Sprague-Dawley rat at 10 mg/kg; type: ADME, organism-based; settings: in vivo
# [13] = Drug level in Sprague-Dawley rat blood at 2 mg/kg, iv after 0.083 hrs; type: ADME, organism-based; parameters: dose 2 mg/kg, route intravenous; settings: read-out: Drug uptake
# [14] = Drug level in Sprague-Dawley rat blood at 10 mg/kg, ig after 0.083 hrs; type: ADME, organism-based; parameters: dose 10 mg/kg, route intragastric; settings: po, read-out: Drug uptake
# [15] = Drug level in Sprague-Dawley rat blood at 10 mg/kg, ig after 0.5 hrs; type: ADME, organism-based; parameters: dose 10 mg/kg, route intragastric; settings: po, read-out: Drug uptake
# Rattus norvegicus [16] = test: Clearance in Sprague-Dawley rat at 2 mg/kg, iv; type: ADME, organism-based; parameters: dose 2 mg/kg, route intravenous; settings: in vivo
# [17] = Selectivity index, ratio of CC50 for human HepG2(2.2.15) cells to IC50 for HBV early antigen secretion; type: functional
# [18] = Tmax in Sprague-Dawley rat at 10 mg/kg, ig; type: ADME, organism-based; parameters: dose 10 mg/kg, route intragastric; settings: in vivo, po
# [19] = Drug level in Sprague-Dawley rat blood at 2 mg/kg, iv after 2 hrs; type: ADME, organism-based; parameters: dose 2 mg/kg, route intravenous; settings: read-out: Drug uptake
# [20] = Drug level in Sprague-Dawley rat blood at 2 mg/kg, iv after 0.5 hrs; type: ADME, organism-based; parameters: dose 2 mg/kg, route intravenous; settings: read-out: Drug uptake
# Rattus norvegicus [21] = test: AUC in Sprague-Dawley rat at 10 mg/kg, ig; type: ADME, organism-based, Plasma; parameters: dose 10 mg/kg, route intragastric; settings: in vivo, po
# [22] = Drug level in Sprague-Dawley rat blood at 2 mg/kg, iv after 8 hrs; type: ADME, organism-based; parameters: dose 2 mg/kg, route intravenous; settings: read-out: Drug uptake
# [23] = Drug level in Sprague-Dawley rat blood at 10 mg/kg, ig after 1 hr; type: ADME, organism-based; parameters: dose 10 mg/kg, route intragastric; settings: po, read-out: Drug uptake
# [24] = Drug level in Sprague-Dawley rat blood at 10 mg/kg, ig after 24 hrs; type: ADME, organism-based; parameters: dose 10 mg/kg, route intragastric; settings: po, read-out: Drug uptake
# [25] = Drug level in Sprague-Dawley rat blood at 10 mg/kg, ig after 2 hrs; type: ADME, organism-based; parameters: dose 10 mg/kg, route intragastric; settings: po, read-out: Drug uptake
# [26] = Drug level in Sprague-Dawley rat blood at 10 mg/kg, ig after 0.25 hrs; type: ADME, organism-based; parameters: dose 10 mg/kg, route intragastric; settings: po, read-out: Drug uptake
# Rattus norvegicus [27] = test: AUC in Sprague-Dawley rat at 2 mg/kg, iv; type: ADME, organism-based, Plasma; parameters: dose 2 mg/kg, route intravenous; settings: in vivo
# [28] = Drug level in Sprague-Dawley rat blood at 2 mg/kg, iv after 1 hr; type: ADME, organism-based; parameters: dose 2 mg/kg, route intravenous; settings: read-out: Drug uptake
# [29] = Drug level in Sprague-Dawley rat blood at 10 mg/kg, ig after 4 hrs; type: ADME, organism-based; parameters: dose 10 mg/kg, route intragastric; settings: po, read-out: Drug uptake
# [30] = Half life in Sprague-Dawley rat at 2 mg/kg, iv; type: ADME, organism-based; parameters: dose 2 mg/kg, route intravenous; settings: in vivo
compound,measurement,setting,value
C[C@H](C[C@H](OC(=O)[C@H]1CCC(=O)O1)[C@@H](OC(=O)[C@H]1CCC(=O)O1)C(C)(C)OC(=O)[C@@H]1CCC(=O)O1)C1=C2C[C@H](OC(=O)[C@@H]3CCC(=O)O3)[C@H]3[C@@]4(C)CCC(=O)C(C)(C)[C@@H]4CC[C@]3(C)[C@@]2(C)CC1,IC50,Hepatitis B virus [1],> 1600 µM
same,CC50,[2],> 1600 µM
same,IC50,Hepatitis B virus [3],> 1600 µM
CCCC(=O)O[C@@H](C[C@@H](C)C1=C2C[C@H](OC(=O)CCC)[C@H]3[C@@]4(C)CCC(=O)C(C)(C)[C@@H]4CC[C@]3(C)[C@@]2(C)CC1)[C@@H](OC(=O)CCC)C(C)(C)OC(=O)CCC,IC50,Hepatitis B virus [1],1800 µM
same,CC50,[2],> 1800 µM
same,IC50,Hepatitis B virus [3],> 1800 µM
CC(C)CC(=O)O[C@@H](C[C@@H](C)C1=C2C[C@H](OC(=O)CC(C)C)[C@H]3[C@@]4(C)CCC(=O)C(C)(C)[C@@H]4CC[C@]3(C)[C@@]2(C)CC1)[C@@H](OC(=O)CC(C)C)C(C)(C)OC(=O)CC(C)C,IC50,Hepatitis B virus [1],> 2000 µM
same,CC50,[2],> 2000 µM
same,IC50,Hepatitis B virus [3],> 2000 µM
CCC(=O)O[C@@H](C[C@@H](C)C1=C2C[C@H](OC(=O)CC)[C@H]3[C@@]4(C)CCC(=O)C(C)(C)[C@@H]4CC[C@]3(C)[C@@]2(C)CC1)[C@@H](OC(=O)CC)C(C)(C)OC(=O)CC,Ratio CC50/IC50,[4],>2.1
same,IC50,Hepatitis B virus [1],> 1900 µM
same,CC50,[2],> 1900 µM
same,IC50,Hepatitis B virus [3],900 µM
CC(=O)O[C@@H](C[C@@H](C)C1=C2C[C@H](OC(C)=O)[C@H]3[C@@]4(C)CCC(=O)C(C)(C)[C@@H]4CC[C@]3(C)[C@@]2(C)CC1)[C@@H](OC(C)=O)C(C)(C)OC(C)=O,concentration at 0.25 h,[5],363 ng/mL
same,concentration at 8 h,[6],6.28 ng/mL
same,concentration at 24 h,[7],2.19 ng/mL
same,C0,[8],567 ng/mL
same,Vd,[9],5.73 L/kg
same,concentration at 4 h,[10],14.5 ng/mL
same,Cmax,[11],383 ng/mL
same,F,Rattus norvegicus [12],40.9%
same,concentration at 0.083 h,[13],567 ng/mL
same,concentration at 0.083 h,[14],8.6 ng/mL
same,concentration at 0.5 h,[15],170 ng/mL
same,Ratio CC50/IC50,[4],>333
same,CL,Rattus norvegicus [16],64.5 mL/min/kg
same,Ratio CC50/IC50,[17],>145
same,Tmax,[18],1 h
same,concentration at 2 h,[19],71.8 ng/mL
same,IC50,Hepatitis B virus [1],11 µM
same,concentration at 0.5 h,[20],246 ng/mL
same,CC50,[2],> 1600 µM
same,IC50,Hepatitis B virus [3],4.8 µM
same,AUC,Rattus norvegicus [21],1040 ng·h/mL
same,concentration at 8 h,[22],5.02 ng/mL
same,concentration at 1 h,[23],383 ng/mL
same,concentration at 24 h,[24],2.03 ng/mL
same,concentration at 2 h,[25],290 ng/mL
same,concentration at 0.25 h,[26],70 ng/mL
same,AUC,Rattus norvegicus [27],510 ng·h/mL
same,concentration at 1 h,[28],156 ng/mL
same,concentration at 4 h,[29],55.9 ng/mL
same,half-life,[30],1.63 h
CC(=O)OC(C)(C)[C@H](OC(=O)C(C)C)[C@H](C[C@@H](C)C1=C2C[C@H](OC(=O)C(C)C)[C@H]3[C@@]4(C)CCC(=O)C(C)(C)[C@@H]4CC[C@]3(C)[C@@]2(C)CC1)OC(=O)C(C)C,Ratio CC50/IC50,[17],>1.3
same,IC50,Hepatitis B virus [1],1500 µM
same,CC50,[2],> 1900 µM
same,IC50,Hepatitis B virus [3],> 1900 µM
CCCC(=O)O[C@@H](C[C@@H](C)[C@]12CC[C@@]3(C)[C@@]1(C[C@H](OC(=O)CCC)[C@H]1[C@@]4(C)CCC(=O)C(C)(C)[C@@H]4CC[C@@]13C)O2)[C@@H](OC(=O)CCC)C(C)(C)OC(=O)CCC,IC50,Hepatitis B virus [1],> 1900 µM
same,CC50,[2],> 1900 µM
same,IC50,Hepatitis B virus [3],> 1900 µM
C[C@H](C[C@H](OC(=O)c1ccc(Cl)cc1)[C@@H](OC(=O)c1ccc(Cl)cc1)C(C)(C)OC(=O)c1ccc(Cl)cc1)C1=C2C[C@H](OC(=O)c3ccc(Cl)cc3)[C@H]3[C@@]4(C)CCC(=O)C(C)(C)[C@@H]4CC[C@]3(C)[C@@]2(C)CC1,Ratio CC50/IC50,[4],>2.9
same,IC50,Hepatitis B virus [1],> 1400 µM
same,CC50,[2],> 1400 µM
same,IC50,Hepatitis B virus [3],480 µM
C[C@H](C[C@H](OC(=O)CCC1CCCCC1)[C@@H](OC(=O)CCC1CCCCC1)C(C)(C)OC(=O)CCC1CCCCC1)C1=C2C[C@H](OC(=O)CCC3CCCCC3)[C@H]3[C@@]4(C)CCC(=O)C(C)(C)[C@@H]4CC[C@]3(C)[C@@]2(C)CC1,IC50,Hepatitis B virus [1],> 1700 µM
same,CC50,[2],> 1700 µM
same,IC50,Hepatitis B virus [3],> 1700 µM
C[C@H](C[C@H](OC(=O)C1CC1)[C@@H](OC(=O)C1CC1)C(C)(C)OC(=O)C1CC1)C1=C2C[C@H](OC(=O)C3CC3)[C@H]3[C@@]4(C)CCC(=O)C(C)(C)[C@@H]4CC[C@]3(C)[C@@]2(C)CC1,IC50,Hepatitis B virus [1],> 2100 µM
same,CC50,[2],> 2100 µM
same,IC50,Hepatitis B virus [3],> 2100 µM
